Test results: ChEMBL document CHEMBL1151340, “Antimicrobial agents from higher plants. Antimicrobial isoflavanoids and related substances from Glycyrrhiza glabra L. var. typica” (1980)
Converted amounts (≈) assume the structure as drawn. The source made the active and inactive calls. The rule behind the calls is not given here.

How the values were obtained:
[1] = tested on: Salmonella enterica subsp. enterica serovar Gallinarum; assay: Antibacterial activity against Salmonella gallinarum ATCC 9184 at 100 mcg/ml by agar-dilution streak method; format: functional, organism-based
Klebsiella pneumoniae [2] = assay: Antibacterial activity against Klebsiella pneumoniae ATCC 10031 at 100 mcg/ml by agar-dilution streak method; format: functional, organism-based
[3] = tested on: Mycolicibacterium smegmatis; assay: Antibacterial activity against Mycobacterium smegmatis ATCC 607 by agar-dilution streak method; format: functional
Candida albicans [4] = assay: Antifungal activity against Candida albicans ATCC 10231 at 100 mcg/ml by agar-dilution streak method; format: functional, organism-based
Staphylococcus aureus [5] = assay: Antibacterial activity against Staphylococcus aureus ATCC 13709 by agar-dilution streak method; format: functional
Escherichia coli [6] = assay: Antibacterial activity against Escherichia coli ATCC 9637 at 100 mcg/ml by agar-dilution streak method; format: functional, organism-based
[7] = tested on: Mycolicibacterium smegmatis; assay: Antibacterial activity against Mycobacterium smegmatis ATCC 607 at 100 mcg/ml by agar-dilution streak method; format: functional
Staphylococcus aureus [8] = assay: Antibacterial activity against Staphylococcus aureus ATCC 13709 at 100 mcg/ml by agar-dilution streak method; format: functional, organism-based
Escherichia coli [9] = assay: Antibacterial activity against Escherichia coli ATCC 9637 by agar-dilution streak method; format: functional
Candida albicans [10] = assay: Antifungal activity against Candida albicans ATCC 10231 by agar-dilution streak method; format: functional
[11] = tested on: Salmonella enterica subsp. enterica serovar Gallinarum; assay: Antibacterial activity against Salmonella gallinarum ATCC 9184 by agar-dilution streak method; format: functional
Klebsiella pneumoniae [12] = assay: Antibacterial activity against Klebsiella pneumoniae ATCC 10031 by agar-dilution streak method; format: functional

Row | SMILES | MIC [3] [µg/mL] | MIC (Staphylococcus aureus [5]) [µg/mL] | MIC (Candida albicans [10]) [µg/mL] | MIC [7] [µg/mL] | MIC (Escherichia coli [9]) [µg/mL] | MIC [11] [µg/mL] | MIC (Klebsiella pneumoniae [12]) [µg/mL] | Activity [1] | Activity (Klebsiella pneumoniae [2]) | Activity (Candida albicans [4]) | Activity (Escherichia coli [6]) | Activity [7] | Activity (Staphylococcus aureus [8]) | Activity (Escherichia coli [9])
1 | COc1c(O)ccc([C@@H]2COc3c(ccc4c3C=CC(C)(C)O4)C2)c1O | – | 50 (≈ 141 µM) | – | – | – | – | – | inactive | inactive | inactive | inactive | inactive | – | –
2 | COc1ccc([C@@H]2COc3c(ccc4c3C=CC(C)(C)O4)C2)c(O)c1 | 3.12 (≈ 9.22 µM) | 6.25 (≈ 18.5 µM) | – | – | – | – | – | inactive | inactive | inactive | inactive | – | – | –
3 | COc1ccc(-c2coc3cc(O)ccc3c2=O)cc1 | – | – | – | – | – | – | – | inactive | inactive | inactive | inactive | inactive | inactive | –
4 | CC1(C)C=Cc2c(O)ccc(C3=Cc4ccc(O)cc4OC3)c2O1 [GLABRENE] | 25 (≈ 77.6 µM) | 25 (≈ 77.6 µM) | – | – | – | – | – | inactive | inactive | inactive | inactive | – | – | –
5 | CC1(C)C=Cc2c(ccc3c2OC[C@@H](c2ccc(O)cc2O)C3)O1 [GLABRIDIN] | 6.25 (≈ 19.3 µM) | 6.25 (≈ 19.3 µM) | 25 (≈ 77.1 µM) | – | – | – | – | inactive | inactive | – | inactive | – | inactive | inactive
6 | CC1(C)C=Cc2c(ccc([C@@H]3COc4cc(O)ccc4C3)c2O)O1 [PHASEOLLINISOFLAVAN] | – | 25 (≈ 77.1 µM) | – | 12.5 (≈ 38.5 µM) | – | – | – | inactive | inactive | inactive | inactive | – | – | –

Second part, led by results:

Row | MIC [3] [µg/mL] | MIC (Staphylococcus aureus [5]) [µg/mL] | MIC (Candida albicans [10]) [µg/mL] | MIC [7] [µg/mL] | MIC (Escherichia coli [9]) [µg/mL] | MIC [11] [µg/mL] | MIC (Klebsiella pneumoniae [12]) [µg/mL] | SMILES | Activity [1] | Activity (Klebsiella pneumoniae [2]) | Activity (Candida albicans [4]) | Activity (Escherichia coli [6]) | Activity [7] | Activity (Staphylococcus aureus [8]) | Activity (Escherichia coli [9])
7 | 6.25 (≈ 15.3 µM) | 6.25 (≈ 15.3 µM) | – | – | – | – | – | CC(C)=CCc1cc([C@H]2Oc3c(ccc(O)c3CC=C(C)C)C(=O)[C@@H]2O)ccc1O | inactive | inactive | inactive | inactive | – | – | –
8 | 1.56 (≈ 3.97 µM) | 1.56 (≈ 3.97 µM) | – | – | – | – | – | CC(C)=CCc1cc([C@@H]2CC(=O)c3ccc(O)c(CC=C(C)C)c3O2)ccc1O [GLABROL] | inactive | inactive | inactive | inactive | – | – | –
9 | 3.12 (≈ 7.95 µM) | 3.12 (≈ 7.95 µM) | – | – | – | – | – | CC(C)=CCc1c(O)ccc([C@@H]2COc3c(ccc4c3C=CC(C)(C)O4)C2)c1O [HISPAGLABRIDIN A] | inactive | inactive | inactive | inactive | – | – | –
10 | 3.12 (≈ 7.99 µM) | 6.25 (≈ 16 µM) | – | – | – | – | – | CC1(C)C=Cc2c(ccc([C@@H]3COc4c(ccc5c4C=CC(C)(C)O5)C3)c2O)O1 [HISPAGLABRIDIN B] | inactive | inactive | inactive | inactive | – | – | –
11 | 1.25 | 5 | – | – | 5 | 50 | 2.5 | CN[C@@H]1[C@H](O[C@H]2[C@H](O[C@H]3[C@H](O)[C@@H](O)[C@H](N=C(N)N)[C@@H](O)[C@@H]3N=C(N)N)O[C@@H](C)[C@]2(O)C=O)O[C@@H](CO)[C@H](O)[C@H]1O.CN[C@@H]1[C@H](O[C@H]2[C@H](O[C@H]3[C@H](O)[C@@H](O)[C@H](N=C(N)N)[C@@H](O)[C@@H]3N=C(N)N)O[C@@H](C)[C@]2(O)C=O)O[C@@H](CO)[C@H](O)[C@H]1O.O=S(=O)(O)O.O=S(=O)(O)O.O=S(=O)(O)O [STREPTOMYCIN SULFATE] | – | – | inactive | – | – | – | –
